Reference: US9770452B2, “Quinoxaline derivatives as GPR6 modulators” (Takeda Pharmaceutical Company Limited, priority 2012, dated 2017)
Where a name gives a salt, the structure may show the parent alone. Read-outs that look alike come from different tables or passages of the source.

Molecular target: T1, GPR6 receptor (Homo sapiens, UniProt P46095)
T1 construct: expressed in transfected cells
Test: Inhibition of cAMP Activity of GPR6 In Vitro Assay (CHO-K1 cells, HTRF cAMP)
Format: cell-based
Details: inhibition of constitutive cAMP activity of GPR6 expressed in CHO-K1 cells, approximate IC50, read-out: IC50
Protocol: Inhibition of cAMP Activity of GPR6 In Vitro Assay
This cell based assay measures the ability of compounds to inhibit the constitutive cAMP activity of GPR6 receptor expressed in CHO-K1 cells. CHO cells were stably expressed with GPR6 receptor, whose expression is controlled by a tetracycline inducable element. The cells were cultured in medium containing F12K, 10% FBS, 1% Penn/Strep, 200 ug/mL Hygromycin. GPR6 receptor expression was induced for 20 hrs with 1 μg/ml doxycycline (sigma D9891) in growth media. After addition of doxycycline cells were plated at a density of 250-500 cells per well in half-volume black clear bottom plates (Costar) and place in an incubator (37°, 5% C(O)2) for 20 hours prior to cAMP assays.
Culture media was removed from cells and they were washed with 50 μL of Ringer's Buffer (MgCl2 0.047 mg/mL, NaH2PO4 0.18 mg/mL, Na2HPO4 0.1 mg/mL, KCl 0.34 mg/mL, NaHC(O)3 1.26 mg/mL, D-glucose 1.8 mg/mL, NaCl 7 mg/mL; pH=7.4). Compounds suspended in DMSO were diluted in Ringer's Buffer containing 0.5% fatty acid free BSA and incubated on cells for 45 min at […] and 5% C(O)2. After incubation cells were incubated for 10 min at room temp with Eu-cAMP tracer solution from a Perkin Elmer Lance HTRF UltracAMP assay kit (TRF0264). Then ULight™-anti-cAMP solution from the Lance HTRF kit was added and incubated on a shaker at room temp for 1 hour prior to HTRF detection in a BMG PolarStar Omega.
IC50 curves were generated with a four-parameter logistic equation using GraphPad Prism 5.03.

T1 sequence (P46095 whole entry): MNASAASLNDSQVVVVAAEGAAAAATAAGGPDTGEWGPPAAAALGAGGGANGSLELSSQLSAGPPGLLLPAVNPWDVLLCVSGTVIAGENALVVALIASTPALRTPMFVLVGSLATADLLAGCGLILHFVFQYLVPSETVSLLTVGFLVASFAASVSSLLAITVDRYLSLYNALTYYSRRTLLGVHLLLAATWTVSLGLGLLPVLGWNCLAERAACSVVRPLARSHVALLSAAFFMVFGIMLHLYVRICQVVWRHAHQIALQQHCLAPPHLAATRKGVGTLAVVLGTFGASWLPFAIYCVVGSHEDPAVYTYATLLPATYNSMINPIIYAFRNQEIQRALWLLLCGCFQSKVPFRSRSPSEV

IC50 (compounds of Compound Table 2) [nM] | Compound | IC50 (compounds of Compound Table 1) [nM]
 | 4-((1-(2-(cyclopropylamino)pyrido[3,4-b]pyrazin-3-yl)piperidin-4-yl)oxy)-3-fluorophenol, 2,2,2-trifluoroacetic acid salt [Cpd 615] | 88
 | 2-(cyclopropylamino)-3-(4-((2,5-dichlorophenyl)sulfonyl)piperazin-1-yl)quinoxaline-6-carbonitrile [Cpd 226] | 570
 | Fc1ccc(F)c(CN2CCN(c3nc4ccccc4nc3NC3CC3)CC2)c1 [Cpd 81, N-cyclopropyl-3-(4-(2,5-difluorobenzyl)piperazin-1-yl)quinoxalin-2-amine, 2,2,2-trifluoroacetic acid salt] | 4580
 | (S)—N-(sec-butyl)-3-(4-(2-fluoro-4-methoxyphenoxy)piperidin-1-yl)pyrazino[2,3-d]pyridazin-2-amine, 2,2,2-trifluoroacetic acid salt [Cpd 637] | 26
 | N-cyclopropyl-3-(4-((4-fluorophenyl)sulfonyl)piperazin-1-yl)pyrido[3,4-b]pyrazin-2-amine, 2,2,2-trifluoroacetic acid salt [Cpd 288] | 2650
 | (1-(2-(cyclopropylamino)pyrido[3,4-b]pyrazin-3-yl)piperidin-4-yl)(thiophen-2-yl)methanone, 2,2,2-trifluoroacetic acid salt [Cpd 573] | 2800
 | 2-(cyclopropylamino)-3-(4-(2,5-dichloroisonicotinoyl)piperazin-1-yl)quinoxaline-6-carbonitrile [Cpd 265] | 300
 | 7-chloro-N-cyclopropyl-3-(4-((2,4-difluorophenyl)fluoromethyl)piperidin-1-yl)pyrido[3,4-b]pyrazin-2-amine, 2,2,2-trifluoroacetic acid salt [Cpd 489] | 7
 | N#Cc1cccc(CN2CCN(c3nc4ccccc4nc3NC3CC3)CC2)c1 [Cpd 95, 3-((4-(3-(cyclopropylamino)quinoxalin-2-yl)piperazin-1-yl)methyl)benzonitrile, 2,2,2-trifluoroacetic acid salt] | 22200
6640 | CC1CN(Cc2cc(Cl)ccc2Cl)CCN1c1nc2ccccc2nc1NC1CC1 (stereo not drawn) [Compound Table 2: Cpd 7, N-cyclopropyl-3-(4-(2,5-dichlorobenzyl)-2-methylpiperazin-1-yl)quinoxalin-2-amine] | 
 | (1-(2-(cyclopropylamino)pyrido[3,4-b]pyrazin-3-yl)piperidin-4-yl)(2-(methylthio)phenyl)methanone, 2,2,2-trifluoroacetic acid salt [Cpd 581] | 6
 | N-cyclopropyl-3-(4-(4-ethoxyphenoxy)piperidin-1-yl)pyrido[3,4-b]pyrazin-2-amine, 2,2,2-trifluoroacetic acid salt [Cpd 601] | 22
 | c1ccc2nc(N3CCN(Cc4coc5ccccc45)CC3)c(NC3CC3)nc2c1 [Cpd 100, 3-(4-(benzofuran-3-ylmethyl)piperazin-1-yl)-N-cyclopropylquinoxalin-2-amine] | 3960
 | 3-(4-((4-bromophenyl)sulfonyl)piperazin-1-yl)-2-(cyclopropylamino)quinoxaline-6-carbonitrile [Cpd 251] | 4340
 | N-cyclopropyl-3-(4-((4-fluorophenyl)sulfonyl)piperidin-1-yl)-7-methylpyrido[3,4-b]pyrazin-2-amine 2,2,2-trifluoroacetate [Cpd 654] | 30
 | (4-bromo-3-fluorophenyl)(4-(3-(cyclopropylamino)-7-fluoroquinoxalin-2-yl)piperazin-1-yl)methanone [Cpd 247] | 1490
 | 2-((2,2-difluoroethyl)amino)-3-(4-(2,4-difluorophenoxy)piperidin-1-yl)pyrido[3,4-b]pyrazine-7-carbonitrile, 2,2,2-trifluoroacetic acid salt [Cpd 646] | 538
 | 3-(4-((5-chloro-2-fluorophenyl)difluoromethyl)piperidin-1-yl)-N-cyclopropylpyrido[3,4-b]pyrazin-2-amine [Cpd 539] | 770
